# Measured values: US20100267561A1, “HERBICIDAL PYRIDAZINONE DERIVATIVES” (priority 2007, published 2010)
# Assays:
# Assay in all cases: Test B pre-/postemergence plant response
# Format in all cases: in vivo
# [1] = tested on: Italian ryegrass (Lolium multiflorum)
# Summary of the method: (§1)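 Visual scoring from 0 (no effect) to 100 (complete control) against untreated controls was done 13 to 15 days after greenhouse treatment. Chemicals were formulated in a surfactant-containing non-phytotoxic solvent and applied to soil preemergence or to 1- to 4-leaf (2-18 cm) plants postemergence.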
# [2] = tested on: bermudagrass (Cynodon dactylon)
# Summary of the method: as §1
# [3] = tested on: cocklebur (Xanthium strumarium)
# Summary of the method: as §1
# [4] = tested on: common (oilseed) sunflower (Helianthus annuus); details: Preemergence
# Summary of the method: as §1
# [5] = tested on: common ragweed (Ambrosia elation)
# Summary of the method: as §1
# [6] = tested on: goosegrass (Eleusine indica)
# Summary of the method: as §1
# [7] = tested on: johnsongrass (Sorghum halepense)
# Summary of the method: as §1
# [8] = tested on: lambsquarters (Chenopodium album)
# Summary of the method: as §1
# [9] = tested on: morningglory (Ipomoea coccinea)
# Summary of the method: as §1
# soybean (Glycine max) = tested on: soybean (Glycine max)
# Summary of the method: as §1
# [10] = tested on: surinam grass (Brachiaria decumbens)
# Summary of the method: as §1
# [11] = tested on: velvetleaf (Abutilon theophrasti)
# Summary of the method: as §1
# [12] = tested on: wheat (Triticum aestivum)
# Summary of the method: as §1
# [13] = 8 g ai/ha, postemergence, 0-100 scale
# [14] = 16 g ai/ha, postemergence, 0-100 scale
# [15] = Postemergence, 31 g ai/ha, scale 0 to 100
# [16] = Postemergence, 62 g ai/ha, scale 0 to 100, 0 no effect, 100 complete control
# [17] = Preemergence, 8 g ai/ha, scale 0 to 100 (0 no effect, 100 complete control)
# [18] = Preemergence, 31 g ai/ha, scale 0 to 100 (0 no effect, 100 complete control)
# [19] = Preemergence, 62 g ai/ha, 0 to 100 scale, 0 no effect, 100 complete control
# [20] = Preemergence, 16 g ai/ha, scale 0 to 100
# [21] = Postemergence, 16 g ai/ha, scale 0 to 100
smiles,measurement,setting,value
Cc1nn(C)c(=O)c(-n2nc(-c3ccc(Br)cc3)cc2C)c1O [Compound 81],"Ryegrass, Italian plant response rating",[1]; [13],85
same,"Ryegrass, Italian plant response rating",[1]; [14],90
same,"Plant response rating, Ryegrass, Italian",[1]; [15],100
same,"Plant response rating, Ryegrass, Italian",[1]; [16],100
same,"Ryegrass, Italian plant response rating",[1]; [17],70
same,"Plant response rating, Ryegrass, Italian",[1]; [18],100
same,"Plant response rating, Ryegrass, Italian",[1]; [19],100
same,"Ryegrass, Italian plant response rating",[1]; [20],100
same,Bermudagrass plant response rating,[2]; [13],40
same,"Plant response rating, Bermudagrass",[2]; [21],95
same,"Plant response rating, Bermudagrass",[2]; [15],100
same,"Plant response rating, Bermudagrass",[2]; [16],100
same,Bermudagrass plant response rating,[2]; [17],0
same,Bermudagrass plant response rating,"[2]; Preemergence, 16 g ai/ha, scale 0 to 100 (0 no effect, 100 complete control)",50
same,"Plant response rating, Bermudagrass",[2]; [18],100
same,"Plant response rating, Bermudagrass",[2]; [19],100
same,Cocklebur plant response rating,[3]; [13],0
same,"Plant response rating, Cocklebur",[3]; [21],0
same,"Plant response rating, Cocklebur",[3]; [15],0
same,"Plant response rating, Cocklebur",[3]; [16],0
same,Cocklebur plant response rating,[3]; [17],0
same,"Plant response rating, Cocklebur",[3]; [18],0
same,"Plant response rating, Cocklebur",[3]; [19],0
same,Cocklebur plant response rating,[3]; [20],0
same,Sunflower plant response rating,"[4]; 8 g ai/ha, scale 0 to 100 (0 no effect, 100 complete control)",0
same,"Plant response rating, Sunflower","[4]; 31 g ai/ha, scale 0 to 100 (0 no effect, 100 complete control)",15
same,"Plant response rating, Sunflower","[4]; 62 g ai/ha, 0 to 100 scale, 0 no effect, 100 complete control",20
same,Sunflower plant response rating,"[4]; 16 g ai/ha, scale 0 to 100",0
same,Ragweed plant response rating,[5]; [13],0
same,Ragweed plant response rating,[5]; [14],0
same,"Plant response rating, Ragweed",[5]; [15],0
same,"Plant response rating, Ragweed",[5]; [16],20
same,Ragweed plant response rating,[5]; [17],0
same,"Plant response rating, Ragweed",[5]; [18],0
same,"Plant response rating, Ragweed",[5]; [19],0
same,Ragweed plant response rating,[5]; [20],0
same,Goosegrass plant response rating,[6]; [13],65
same,Goosegrass plant response rating,[6]; [14],70
same,"Plant response rating, Goosegrass",[6]; [15],80
same,"Plant response rating, Goosegrass",[6]; [16],85
same,Goosegrass plant response rating,[6]; [17],80
same,"Plant response rating, Goosegrass",[6]; [18],100
same,"Plant response rating, Goosegrass",[6]; [19],100
same,Goosegrass plant response rating,[6]; [20],98
same,Johnsongrass plant response rating,[7]; [13],75
same,Johnsongrass plant response rating,[7]; [14],95
same,"Plant response rating, Johnsongrass",[7]; [16],100
same,Johnsongrass plant response rating,[7]; [17],60
same,"Plant response rating, Johnsongrass",[7]; [18],95
same,"Plant response rating, Johnsongrass",[7]; [19],95
same,Johnsongrass plant response rating,[7]; [20],80
same,Lambsquarters plant response rating,[8]; [13],0
same,Lambsquarters plant response rating,[8]; [14],0
same,"Plant response rating, Lambsquarters",[8]; [15],0
same,"Plant response rating, Lambsquarters",[8]; [16],0
same,Lambsquarters plant response rating,[8]; [17],0
same,"Plant response rating, Lambsquarters",[8]; [18],0
same,"Plant response rating, Lambsquarters",[8]; [19],0
same,Lambsquarters plant response rating,[8]; [20],0
same,Morningglory plant response rating,[9]; [13],0
same,Morningglory plant response rating,[9]; [14],0
same,"Plant response rating, Morningglory",[9]; [15],0
same,"Plant response rating, Morningglory",[9]; [16],0
same,Morningglory plant response rating,[9]; [17],0
same,"Plant response rating, Morningglory",[9]; [18],0
same,"Plant response rating, Morningglory",[9]; [19],100
same,Morningglory plant response rating,[9]; [20],0
same,Soybean plant response rating,soybean (Glycine max); [13],0
same,Soybean plant response rating,soybean (Glycine max); [14],0
same,"Plant response rating, Soybean",soybean (Glycine max); [15],15
same,"Plant response rating, Soybean",soybean (Glycine max); [16],20
same,Soybean plant response rating,soybean (Glycine max); [17],0
same,"Plant response rating, Soybean",soybean (Glycine max); [18],0
same,"Plant response rating, Soybean",soybean (Glycine max); [19],0
same,Soybean plant response rating,soybean (Glycine max); [20],0
same,Surinam Grass plant response rating,[10]; [13],90
same,Surinam Grass plant response rating,[10]; [14],98
same,"Plant response rating, Surinam Grass",[10]; [15],100
same,"Plant response rating, Surinam Grass",[10]; [16],100
same,Surinam Grass plant response rating,[10]; [17],60
same,"Plant response rating, Surinam Grass",[10]; [18],100
same,"Plant response rating, Surinam Grass",[10]; [19],100
same,Surinam Grass plant response rating,[10]; [20],85
same,Velvetleaf plant response rating,[11]; [13],0
same,Velvetleaf plant response rating,[11]; [14],0
same,"Plant response rating, Velvetleaf",[11]; [15],0
same,"Plant response rating, Velvetleaf",[11]; [16],0
same,Velvetleaf plant response rating,[11]; [17],0
same,"Plant response rating, Velvetleaf",[11]; [18],0
same,"Plant response rating, Velvetleaf",[11]; [19],0
same,Velvetleaf plant response rating,[11]; [20],0
same,Wheat plant response rating,[12]; [13],30
same,Wheat plant response rating,[12]; [14],55
same,"Plant response rating, Wheat",[12]; [15],95
same,"Plant response rating, Wheat",[12]; [16],100
same,Wheat plant response rating,[12]; [17],0
same,"Plant response rating, Wheat",[12]; [18],50
same,"Plant response rating, Wheat",[12]; [19],85
same,Wheat plant response rating,[12]; [20],5
